Tests used:
Type in all cases: in vivo, human
[1] = system: patients with major depressive disorder; experiment: Sexual Functioning Inventory (SFI) in placebo- and paroxetine-controlled MDD trial; parameters: scale not given here; details: LOCF
Text: (§1) A sequential parallel comparison design (SPCD) is utilized. […] The study is 12 weeks in duration, with two 6-week phases. The primary outcome measure is change on the Montgomery Asberg Depression Rating Scale (MADRS). Secondary outcomes include Hamilton Rating Scale for Depression (HAM-D), Clinical Global Impression of Improvement (CGI-I), Sexual Functioning Inventory (SFI), Clinical Global Impression (Improvement and Severity versions), and the Massachusetts General Hospital (MGH) Cognitive and Physical Functioning Questionnaire (MGH-CPFQ). Male and female patients, between the ages of 18-65, are eligible who had MDD, based on the Structured Clinical Interview for DSM Disorders (SCID) interview, and validated by remote raters, a history of non-response to an adequate trial of an antidepressant during the current episode of MDD (an adequate dose for >8 weeks), and a HAM-D-17 score of >18 at screening.
(§2) In addition to standard inclusion criteria the trial requires: 1) diagnosis of MDD, based on the Structured Clinical Interview for DSM Disorders Clinical Trials version (SCID-CT), validated by remote independent raters using the SAFER criteria interview, 2) one and only one antidepressant therapy (ADT) failure in the current episode of MDD, treated with an adequate dose of one of an allowed standard antidepressant (paroxetine or an monoamine oxidase inhibitor (MAOI) not allowed) during the current episode for >6 weeks, with the same, adequate dose for >4 weeks, 3) HAM-D17≧18 at the end of screening phase, 4)<25% reduction in Quick Inventory of Depressive Symptoms Self-Rated (QIDS-SR) score between the screen and baseline visits. Inadequate response: defined as <50% reduction in depressive symptom severity, assessed by the MGH Antidepressant Treatment Response Questionnaire (ATRQ) administered by remote, independent raters (Targum, S. et al., CNS Neuroscience & Therapeutics, 2010, 16 (5), 322-325). An adequate trial is defined as an ADT>6 weeks at least at the minimum dose specified in the MGH ATRQ.
The SCID-CT is administered by study clinicians at the screening visit to diagnose Axis I disorders. The remote, independent raters also administer the SAFER Criteria Inventory (SCI) during the screening phase to assess whether the MDD is a “valid” clinical entity.
The primary efficacy assessment is the MADRS, administered at every study visit and clinicians complete it by using a structured interview guide developed by Massachusetts General Hospital (MGH). The primary tolerability assessment is the change in the SFI, completed by the patient at every study visit. The MGH-CPFQ, a brief self-report inventory to assess rates of significant cognitive symptoms, sleepiness and fatigue, is filled out by patients at every visit. The Columbia-Suicide Severity Rating Scale (C-SSRS) (Posner K. et al., American Journal of Psychiatry, 2011, 168 (12)1266-77) is administered at every visit. Vital signs are recorded at each visit; physical exam is performed at screen and week 12 (or early termination). Laboratory tests are obtained at screen, baseline, and weeks 2, 4, 6, 8, 10, 12 (or early termination). Twelve-lead ECGs are obtained at screen, baseline, and weeks 3, 6, 9, 12 (or early termination). Consumptive habits (smoking, alcohol, and caffeinated beverages) are recorded at every visit. Adverse events and concomitant medications are collected at every visit.

[2] = system: patients with major depressive disorder; experiment: Montgomery Asberg Depression Rating Scale (MADRS) in MDD trial
Text: (§3) A multicenter, randomized, double blind, placebo- and paroxetine-controlled trial of amitifadine for major depressive disorder (MDD) non-responsive to an adequate trial of an antidepressant therapy in the current depressive episode. A sequential parallel comparison design (SPCD) is utilized. […] The study is 12 weeks in duration, with two 6-week phases. The primary outcome measure is change on the Montgomery Asberg Depression Rating Scale (MADRS). Secondary outcomes include Hamilton Rating Scale for Depression (HAM-D), Clinical Global Impression of Improvement (CGI-I), Sexual Functioning Inventory (SFI), Clinical Global Impression (Improvement and Severity versions), and the Massachusetts General Hospital (MGH) Cognitive and Physical Functioning Questionnaire (MGH-CPFQ). […]
as §2, with “An adequate trial is defined as an ADT>6 weeks at least at the minimum dose specified in the MGH ATRQ.” left out
The primary efficacy assessment is the MADRS, administered at every study visit and clinicians complete it by using a structured interview guide developed by Massachusetts General Hospital (MGH). […] Vital signs are recorded at each visit; physical exam is performed at screen and week 12 (or early termination). […]

[3] = system: patients with major depressive disorder; experiment: Clinical Global Impression of Improvement (CGI-I) in MDD trial; details: amitifadine 50 mg or 100 mg; paroxetine 40 mg at both 6 and 12 weeks
Text: as §1, with “A multicenter, randomized, double blind, placebo- and paroxetine-controlled trial of amitifadine for major depressive disorder (MDD) non-responsive to an adequate trial of an antidepressant therapy in the current depressive episode. A sequential” for “A sequential”, “at screening. […]” for “at screening.”

[4] = system: patients with major depressive disorder; experiment: Vital signs (heart rate, blood pressure) in MDD trial; details: amitifadine 50 mg and 100 mg
Text: as §3
The primary efficacy assessment is the MADRS, administered at every study visit and clinicians complete it by using a structured interview guide developed by Massachusetts General Hospital (MGH). […] Vital signs are recorded at each visit; physical exam is performed at screen and week 12 (or early termination). […] Consumptive habits (smoking, alcohol, and caffeinated beverages) are recorded at every visit. […]

[5] = system: patients with major depressive disorder; experiment: Sexual Functioning Inventory (SFI) in placebo- and paroxetine-controlled MDD trial; parameters: Mean Change from Baseline SFI, Item 3 / Mean Change from Baseline SFI, Item 4 / Mean Change from Baseline SFI, Item 5 / Mean Change from Baseline SFI Total / Mean Change from Baseline SFI, Item 1 / Mean Change from Baseline SFI, Item 2: scale not given here; details: amitifadine 100 mg
[6] = both genders, amitifadine 100 mg vs paroxetine 40 mg
[7] = female, amitifadine 100 mg, compare vs placebo
[8] = LOCF, female, compare vs placebo

Clc1ccc([C@]23CNC[C@H]2C3)cc1Cl [Amitifadine]
Mean Change from Baseline SFI Total [1, 6]: −3.86 | Mean Change from Baseline SFI, Item 1 [1, 6]: −1.02 | Mean Change from Baseline SFI, Item 2 [1, 6]: −1.00 | Mean Change from Baseline SFI, Item 3 [1, 6]: −0.80 | Mean Change from Baseline SFI, Item 4 [1, 6]: −0.79 | Mean Change from Baseline SFI, Item 5 [1, 6]: −1.00 | Mean Change from Baseline SFI, Item 2 [1, 7]: −1.12 | Mean Change from Baseline SFI, Item 5 [1, 7]: −1.09 | difference between paroxetine and amitifadine 100 mg in improvement ([2]; exploratory analyses): non-significant | MADRS change from baseline compared to placebo ([2]; primary analysis, amitifadine 50 mg or 100 mg, paroxetine 40 mg): no significant difference | CGI-Improvement compared to placebo [3]: no significant differences | changes in heart rate or blood pressure [4]: Neither dose is associated with significant changes | Mean Change from Baseline SFI Total [5, 8]: −4.41 | Mean Change from Baseline SFI, Item 1 [5, 8]: −1.16 | Mean Change from Baseline SFI, Item 3 [5, 8]: −0.97 | Mean Change from Baseline SFI Total ([5]; LOCF, male, compare vs placebo): −3.12 | Mean Change from Baseline SFI, Item 1 ([5]; LOCF, male, compare vs placebo): −0.83 | Mean Change from Baseline SFI, Item 2 ([5]; LOCF, male, compare vs placebo): −0.83 | Mean Change from Baseline SFI, Item 3 ([5]; LOCF, male, compare vs placebo): −0.58 | Mean Change from Baseline SFI, Item 4 ([5]; LOCF, male, compare vs placebo): −0.79 | Mean Change from Baseline SFI, Item 5 ([5]; LOCF, male, compare vs placebo): −0.88 | individual items of the SFI (anorgasmia, arousal, overall satisfaction) versus paroxetine ([5]; most individual items): significantly less impairing | SFI change from baseline compared with placebo in women ([5]; post-hoc analyses by gender, women): significant improvement

Fc1ccc([C@@H]2CCNC[C@H]2COc2ccc3c(c2)OCO3)cc1 [Paroxetine, reference compound]
Mean Change from Baseline SFI Total [1, 6]: −1.52 | Mean Change from Baseline SFI, Item 1 [1, 6]: −0.57 | Mean Change from Baseline SFI, Item 2 [1, 6]: −0.45 | Mean Change from Baseline SFI, Item 3 [1, 6]: −0.27 | Mean Change from Baseline SFI, Item 4 [1, 6]: −0.13 | Mean Change from Baseline SFI, Item 5 [1, 6]: −0.23 | improvement compared to both placebo and amitifadine 50 mg ([2]; exploratory analyses, paroxetine 40 mg): significantly better improvement | CGI-Improvement compared to placebo [3]: significant difference

Reference: patent US20160279098A1, “NOVEL METHODS” (EUTHYMICS BIOSCIENCE, INC., priority 2013, published 2016)
